Test [1] has as its system picornaviruses (CVB1, HRV-A2, HRV-A23, EV-68). Put plainly: Anti-picornavirus cytopathic effect (CPE) reduction assay on HeLa H1 cells. Type of test: cell-based. As to conditions: 48 h, category from averaging EC50 values of four picornaviruses (CVB1, HRV-A2, HRV-A23, EV68), second symbol in parentheses. As for the experimental part: Anti-Picornavirus Assay in Mammalian Cell Culture
The antiviral activity of selected compounds was tested using a cytopathic effect (CPE) reduction assay on HeLa H1 cells (ATCC CRL-1958). Briefly, cells were seeded in 96-well dishes (2×10^4 cells/well) in DMEM medium (Life technologies) supplemented with 10% FBS and PenStrep solution (100 U/mL Penicillin and 100 μg/mL streptomycin) and incubated at 37° C., 5% CO2 overnight. The next day, cells were pre-treated with serial dilutions of the compound in DMEM medium supplemented with 2% FBS and PenStrep for 2 h at 37° C., 5% CO2. Next, cells were infected with virus (CVB1, HRV-A2, HRV-A23, EV-68) at an multiplicity of infection (MOI) which results in a complete virus-induced CPE within 2 days in control wells (infected and vehicle-treated). After 48 h, supernatants were aspirated and 50 μl/well of CellTiterBlue reagent (Promega) diluted 1:5 in DMEM+2% FBS, was added to the cells. Plates were returned to the incubator and allowed to develop for 1.5 h. After that, plates were equilibrated to RT and subsequently, fluorescence was recorded (Excitation wavelength: 560 nm; emission wavelength: 590 nm) using a SpectraMax M5 multimode plate reader. Viability of cells was calculated according to the formula: V=(RFUCpd−RFUVeh/(RFUM−RFUVeh), where RFUCpd refers to infected and compound-treated cells, RFUVeh to infected and vehicle-treated cells and RFUM to uninfected and vehicle treated cells. Half-maximal effective concentrations (EC50) were calculated by non-linear regression analysis using the drc package in R (R Development. Core Team, 2005). EC50 categories as presented in Table 2 were calculated by averaging the EC50 values from four picornaviruses (CVB1, HRV-A2, HRV-A23, EV68).
Background: Cytopathic effects are the visible damage that an infection or toxin causes in cultured cells.

The target of another test is T1, PLA2G16 (Homo sapiens, UniProt P53816).
T1 construct: Hexa-His (N); made in house; host or cells: E. coli BL21(DE3)
T1 sequence (P53816 1-162): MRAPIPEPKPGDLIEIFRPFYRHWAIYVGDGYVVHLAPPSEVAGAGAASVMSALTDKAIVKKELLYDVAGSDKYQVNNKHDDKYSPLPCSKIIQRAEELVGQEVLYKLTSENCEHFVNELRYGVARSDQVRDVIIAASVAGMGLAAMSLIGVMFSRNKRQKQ
Put plainly: Enzyme activity assay for PLA2G16 (Red/Green BODIPY PC-A2 fluorescence). The class given is biochemical. As to conditions: His-tagged PLA2G16, 4 min pre-incubation, compound 2 nM to 50 μM; first symbol in parentheses. The source says: Purification and Enzyme Activity Assay for PLA2G16
A cDNA for PLA2G16 (NM_007069) was custom-synthesized by Genscript (Piscataway, USA) and inserted into a pET-based bacterial expression vector [Moffatt, B. A. and Studier, F. W. (1986) J. Mol. Biol. 189, 113-130; Rosenberg, A. H., Lade, B. N., Chui, D., Lin, S., Dunn, J. J., and Studier, F. W. (1987) Gene 56, 125-135], enabling the expression of N-terminally Hexa-His-tagged PLA2G16. E. coli BL21(DE3) (Agilent) were transformed with pET-His-PLA2G16 according to the manufacturer's instructions and plated on Carbenicillin-containing agar plates (final concentration: 100 μg/mL). A single clone was inoculated in 100 mL LB medium supplemented with 100 μg/mL Carbenicillin and the inoculated culture was grown at 37° C. overnight in a rotary shaker. On the next day, the bacterial culture was diluted in LB medium supplemented with 100 μg/mL Carbenicillin (30 mL overnight culture in 800 mL total culture volume). Bacteria were grown at 37° C. until the OD600 reached 0.6. Gene expression was induced by addition of 1 mM isopropyl-β-D-thiogalactopyranosid (IPTG) for 2 h at 18° C. Subsequently, bacteria were harvested by centrifugation (15 min; 10,000×g; 4° C.) and frozen at −80° C. The bacterial pellet was resuspended in Buffer A (50 mM Tris/HCl pH 7.5, 500 mM NaCl, 5% glycerol, 5 mM β-Mercaptoethanol and 1 mM PMSF) and lysed by addition of 1 mg/mL lysozyme (Sigma Aldrich) and 100 μg/mL DNasel-(Roche). The sample was incubated at 30° C. for 30 min to allow lysis to occur. Then, the lysate was cleared by centrifugation (15,000×g, 15 min, 4° C.) and incubated with 1.5 mL Ni-NTA agarose suspension (Qiagen) for 60 min at 4° C. The Ni-NTA agarose was washed with 10 mL Buffer A. Bound protein was eluted by applying a manual gradient of Buffer A supplemented with increasing concentrations of imidazole (Sigma Aldrich; 25/50/75/100/250 mM). Purified fractions were analyzed by SDS-PAGE followed by Coomassie staining to assess the purity.
Activity of the protein was assessed as follows:
Red/Green BODIPY® PC-A2 (Invitrogen, 1 mM in DMSO) was mixed with equal volumes of 1,2-Dioleoyl-sn-glycero-3-phosphocholine (DOPC; Sigma Aldrich, 10 mM in Ethanol) and 1,2-Dioleoyl-sn-glycero-3-phospho-rac-(1-glycerol) (DOPG; Sigma Aldrich, 10 mM in Ethanol) and 0.5 volumes of Cholesterol (CHOL; Sigma Aldrich, 10 mM in Ethanol) and vortexed for 5 s. The mixture (Red/Green BODIPY® PC-A2/DOPC/DOPG/CHOL) was diluted 1:91.4 in activity assay buffer (50 mM Tris/HCl pH 8.5, 100 mM NaCl) using a small-orifice pipette tip under constant vortexing. In the following, this preparation will be referred to as the “substrate solution”.
In order to evaluate their inhibitory potential, compounds were dissolved at 10 mM concentration in DMSO and directly spotted into assay plates (Corning, Cat. No. 3576) using acoustic liquid transfer (Labcyte Echo 525). Each compound was spotted at increasing concentrations, ranging from 2 nM to 50 μM (concentration in the final assay volume). 50 μl of PLA2G16 enzyme solution (diluted in activity buffer, supplemented with 5 mM L-Glutathione; Sigma Aldrich) was pre-incubated with compounds for 4 min., followed by addition of 50 μl of substrate solution. Fluorescence was recorded immediately after substrate addition for a total time of 10 min. using a SpectraMax M5 multimode reader (Excitation wavelength: 480 nm, emission wavelength: 530 nm). The relative increase of fluorescence over time is referred to as the enzyme activity. Half-maximal inhibitory concentrations (IC50) were derived by non-linear regression analysis using the drc package in R (R Development. Core Team, 2005).

These results are taken from patent US11180479B2 (HAPLOGEN GmbH, priority 2017, dated 2021).

The EC50 is the midpoint of the concentration-response curve. A word on the IC50: it is the concentration at which inhibition is half-maximal.

Take `CC(F)(F)CNC(=O)C(=O)[C@H]1CN(c2cncnc2)C(=O)[C@@H]1Cc1ccccc1` (single isomer, unassigned) [FP-95]: the 50% effective concentration (EC50) in test [1] is less than 1 µM. Besides, the half-inhibitory concentration (IC50) at PLA2G16 is less than 1 µM.
`O=C(NC1CC1)C(=O)[C@H]1CN(c2ccnc(Cl)n2)C(=O)[C@@H]1Cc1ccccc1` (racemic) [FP-60, Rac-2-[(3R,4R)-4-benzyl-1-(2-chloropyrimidin-4-yl)-5-oxopyrrolidin-3-yl]-N-cyclopropyl-2-oxoacetamide]: in test [1], the EC50 fell in the range of 1 to 10 µM. Besides, the IC50 on PLA2G16 was less than 1 µM.
The like results for `CCNC(=O)C(=O)[C@H]1CNC(=O)[C@@H]1Cc1ccccc1` (racemic) [FP-3, Rac-2-[(3R,4R)-4-benzyl-5-oxopyrrolidin-3-yl]-N-ethyl-2-oxoacetamide] were, in that order, less than 1 µM and less than 1 µM.
The like results for `CCNC(=O)C(=O)[C@H]1CNC(=O)[C@@H]1c1ccccc1` (racemic) [FP-15, Rac-N-ethyl-2-oxo-2-[(3R,4S)-5-oxo-4-phenylpyrrolidin-3-yl]acetamide] were, in that order, 1 to 10 µM and less than 1 µM.
`O=C(NCC1CC1)C(=O)[C@@H]1CNC(=O)[C@H]1Cc1ccccc1` (single isomer, unassigned) [FP-82]: the EC50 in test [1] was in the range of 1 to 10 µM. Also, the IC50 on PLA2G16 was less than 1 µM.
In the case of `CC(C)CNC(=O)C(=O)[C@H]1CN(CC(N)=O)C(=O)[C@@H]1Cc1ccccc1` (racemic) [FP-40, Rac-2-[(3R,4R)-4-benzyl-1-(carbamoylmethyl)-5-oxopyrrolidin-3-yl]-N-(2-methylpropyl)-2-oxoacetamide], the half-maximal effective concentration (EC50) in test [1] is less than 1 µM. In addition, the IC50 at PLA2G16 was less than 1 µM.
On to `O=C(NC1CC1)C(=O)[C@@H]1CN(c2cncnc2)C(=O)[C@H]1Cc1ccccc1` (single isomer, unassigned) [FP-90], for which the EC50 in test [1] fell in the range of 1 to 10 µM. Besides, the 50% inhibitory concentration (IC50) on PLA2G16 was less than 1 µM.
The like results for `O=C(NCC(F)(F)F)C(=O)[C@H]1CNC(=O)[C@@H]1c1ccccc1` (racemic) [FP-22, Rac-2-oxo-2-[(3R,4S)-5-oxo-4-phenylpyrrolidin-3-yl]-N-(2,2,2-trifluoroethyl)acetamide] were, in that order, 1 to 10 µM and less than 1 µM.
As to `O=C(NC1CC1)C(=O)[C@H]1CNC(=O)[C@@H]1Cc1ccc(F)cc1` (racemic) [FP-29, Rac-N-cyclopropyl-2-[(3R,4R)-4-[(4-fluorophenyl)methyl]-5-oxopyrrolidin-3-yl]-2-oxoacetamide], in test [1], the EC50 is less than 1 µM. Also, the IC50 at PLA2G16 is less than 1 µM.
Turning to `Cc1ncncc1N1C[C@H](C(=O)C(=O)NC2CC2)[C@@H](Cc2ccccc2)C1=O` (racemic) [FP-67, Rac-2-[(3R,4R)-4-benzyl-1-(4-methylpyrimidin-5-yl)-5-oxopyrrolidin-3-yl]-N-cyclopropyl-2-oxoacetamide], in test [1], the half-maximal effective concentration (EC50) was in the range of 1 to 10 µM. Further, the IC50 at PLA2G16 was less than 1 µM.
As for `N#CCCNC(=O)C(=O)[C@H]1CNC(=O)[C@@H]1Cc1ccccc1` (racemic) [FP-6, Rac-2-[(3R,4R)-4-benzyl-5-oxopyrrolidin-3-yl]-N-(2-cyanoethyl)-2-oxoacetamide], the concentration giving a half-maximal response (EC50) in test [1] was in the range of 1 to 10 µM. At PLA2G16, the half-maximal inhibitory concentration (IC50) is less than 1 µM.
The like results for `O=C(NC1CC1)C(=O)[C@H]1CN(CCN2CCCC2=O)C(=O)[C@@H]1Cc1ccccc1` (racemic) [FP-48, Rac-2-[(3R,4R)-4-benzyl-5-oxo-1-[2-(2-oxopyrrolidin-1-yl)ethyl]pyrrolidin-3-yl]-N-cyclopropyl-2-oxoacetamide] were, in that order, 1 to 10 µM and less than 1 µM.
The like results for `CC(F)(F)CNC(=O)C(=O)[C@H]1CNC(=O)[C@@H]1c1ccccc1` (single isomer, unassigned) [FP-88] were, in that order, less than 1 µM and less than 1 µM.
The like results for `CCNC(=O)C(=O)[C@H]1CNC(=O)[C@@H]1Cc1ccc(F)cc1` (racemic) [FP-30, Rac-N-ethyl-2-[(3R,4R)-4-[(4-fluorophenyl)methyl]-5-oxopyrrolidin-3-yl]-2-oxoacetamide] were, in that order, less than 1 µM and less than 1 µM.
Turning to `CCNC(=O)C(=O)[C@H]1CN(CC2CCOCC2)C(=O)[C@@H]1Cc1ccccc1` (racemic) [FP-33, Rac-2-[(3R,4R)-4-benzyl-1-[(oxan-4-yl)methyl]-5-oxopyrrolidin-3-yl]-N-ethyl-2-oxoacetamide], the half-maximal effective concentration (EC50) in test [1] is less than 1 µM. The concentration for half-maximal inhibition (IC50) on PLA2G16 was less than 1 µM.
With `O=C(NC1CC1)C(=O)[C@H]1CN(c2cc(Cl)cc(OCc3ccccc3)n2)C(=O)[C@@H]1Cc1ccccc1` (racemic) [FP-72, Rac-2-[(3R,4R)-4-benzyl-1-[6-(benzyloxy)-4-chloropyridin-2-yl]-5-oxopyrrolidin-3-yl]-N-cyclopropyl-2-oxoacetamide], the 50% effective concentration (EC50) in test [1] is less than 1 µM. Further, the half-maximal inhibitory concentration (IC50) at PLA2G16 was less than 1 µM.
With `CC(F)(F)CNC(=O)C(=O)[C@H]1CNC(=O)[C@@H]1c1ccc(F)cc1` (racemic) [FP-26, Rac-N-(2,2-difluoropropyl)-2-[(3R,4S)-4-(4-fluorophenyl)-5-oxopyrrolidin-3-yl]-2-oxoacetamide], in test [1], the EC50 fell in the range of 1 to 10 µM. The half-inhibitory concentration (IC50) at PLA2G16 is less than 1 µM.
The like results for `O=C(NCC1CC1)C(=O)[C@H]1CNC(=O)[C@@H]1Cc1ccccc1` (single isomer, unassigned) [FP-81] were, in that order, less than 1 µM and less than 1 µM.
Take `O=C(NCCC1CC1)C(=O)[C@H]1CNC(=O)[C@@H]1c1ccccc1` (racemic) [FP-24, Rac-N-(2-cyclopropylethyl)-2-oxo-2-[(3R,4S)-5-oxo-4-phenylpyrrolidin-3-yl]acetamide]: in test [1], the EC50 was less than 1 µM. Further, on PLA2G16, the 50% inhibitory concentration (IC50) was less than 1 µM.
`O=C(NC1CC1)C(=O)[C@H]1CN(c2cnccn2)C(=O)[C@@H]1Cc1ccccc1` (single isomer, unassigned) [FP-93]: in test [1], the 50% effective concentration (EC50) was less than 1 µM. Besides, at PLA2G16, the half-maximal inhibitory concentration (IC50) is less than 1 µM.
